The record followed here is patent US6962909B2, “Treatment of neovascularization disorders with squalimine” (Genaera Corporation, priority 1995, dated 2005).

The subject of one test is S. aureus. Briefly: Antibiotic activity, MIC. In kind it is cell-based. As to conditions: Staphylococcus aureus.
The test system of another test is E. coli. Briefly: Antibiotic activity, MIC. Type of test: cell-based. Particulars: Escherichia coli.
In the next test the test system is C. albicans. Briefly: Antibiotic activity, MIC. Particulars: Candida albicans.
The subject of the next test is P. aerug. Briefly: Antibiotic activity, MIC.
For test [1], the system named is Stage 59-60 Xenopus tadpoles. Kind of test: Xenopus tadpole assay. Type of test: in vivo, Xenopus laevis. As to conditions: 10 μg/ml in water. The source says:
A newly developed assay employing tadpoles, preferably Xenopus laevis Stages 59-60, were employed to study the effect of a compound by monitoring capillary occlusion in the tadpole's tail. […] The compounds of the invention affect the shape, viability and integrity of the embryonic tissues while not affecting the adult tissues, providing a powerful, highly specific screen. For example, substances that destroy all of the animal's epithelium, both adult and embryonic, could be regarded as toxic.
In this assay, tadpoles are introduced into Petri dishes containing a solution of the test compound in distilled water, preferably about 100 ml. The preferred concentration of the test compound is from about 1 μg/ml to about 10 μg/ml. The volume of liquid is sufficient for the animal to swim freely and drink from the solution. Thus, the effect observed results from oral absorption and subsequent systemic distribution of the agent. If the volume of liquid is not sufficient to permit oral intake, the effects that are observed would result from absorption through the surface epithelium. Thus, this simple assay can identify if an compound has characteristics of oral availability.
After an amount of time, typically about 60 minutes, the occlusion of blood flow through capillaries in the tadpole's tail are observed under an inverted microscope at a magnification of roughly 100×.
The tadpole assay described above provides an advantageous way to determine the pharmacological targets of each steroid when introduced into a mammal, and to determine pharmacological categories into which synthetic compounds belong. In the assay, each of the steroids was dissolved in 100 ml of distilled water at a concentration of 10 μg/ml. Stage 59-60 Xenopus tadpoles were introduced and evaluated by light microscopy and gross observation 1 hour later.

Test [2] deals with vitelline capillaries of 3- to 5-day chick embryo. Briefly: Chick embryo vitelline capillary regression assay. Type of test: in vivo. Also on record: key to Vascular reactivity (capillary regression): + = Vascular reactivity; 0 = No vascular reactivity; +/− = Equivocal reactivity. As to conditions: 60 minutes. On the procedure: Using the chick embryo vitelline capillaries assay, compounds were tested for their ability to induce capillary regression. Each compound was applied in 0.1 ml of 15% Ficol 400 and PBS onto the embryo, and vascular regression was assessed after 60 minutes.
The 3-day chick embryo consists of an embryonic disc from which numerous vessels emerge and return, forming a “figure 8”-shaped structure—the embryo in the center with vascular loops extending outward over both poles. […] Following a lag period of around 15 minutes, the constriction of continuity between capillary and secondary vessels, generally on the “venous” side, was observed. Continued pulsatile blood flow progressed, resulting in a “swelling” of the blind tube, followed by a pinching off of the remaining connection and formation of an enclosed vascular sac resembling a “blood island.” This process progressed until only the largest vessels remained intact.

The test system of test [3] is human microvascular cells. Kind of test: Endothelial cord formation assay. Also: key: + = Inhibition of angiogenesis; − = No inhibition of angiogenesis; T = Toxic; *= cell rounding @ 10 µg/ml. Type of test: cell-based. The source says:
Endothelial cells have the capacity in vitro to form tubular aggregates resembling capillaries in various early stages of formation. This conversion occurs under relatively specific conditions, in which essential growth factors along with an effective substratum are provided. It has been shown that both the interaction of growth factors with the endothelial cell and its attachment to a substratum activate the NHE. The activation of this exchanger is believed to be required for subsequent morphologic transformation of the endothelial cell into a multicellular tubular structure.
To assess the effect of compounds on the cord-like structures formed by human microvascular cells when plated in the presence of VGEF (Vascular Endothelial Growth Factor) and basic fibroblast growth factor on a collagen matrix, a standard cord formation assay was used.

In brackets after ≈: the same amount, converted by molar mass.

As a reminder, the MIC is the lowest concentration that inhibits growth of the organism. In the case of `CC(C)C(O)CCC(C)[C@H]1CCC2C3C(CC[C@@]21C)[C@@]1(C)CC[C@H](NCCCNCCCCN(C)C)C[C@@H]1C[C@H]3O` (stereo partly drawn), the MIC was 8 to 16 µg/mL (≈ 13.9 to 27.8 µM) against S. aureus, 64 µg/mL (≈ 111 µM) against E. coli, 64 µg/mL (≈ 111 µM) in the test with C. albicans and 128 µg/mL (≈ 222 µM) in the test on P. aerug.
As to `CC(C)CCCC(C)[C@H]1CCC2C3CC[C@H]4C[C@@H](NCCCNCCCCN)CC[C@]4(C)C3CC[C@@]21C` (stereo partly drawn), the MIC against S. aureus was 8 µg/mL (≈ 15.5 µM); with E. coli it was 128 to 256 µg/mL (≈ 248 to 496 µM); against C. albicans it was 256 µg/mL (≈ 496 µM); in the test on P. aerug, 128 µg/mL (≈ 248 µM).
As to `CC(C)CCCC(C)[C@H]1CCC2C3CC[C@H]4C[C@H](NCCCNCCCCN)CC[C@]4(C)C3CC[C@@]21C` (stereo partly drawn), the MIC in the test on S. aureus was 2 to 4 µg/mL (≈ 3.88 to 7.75 µM); against E. coli, 128 µg/mL (≈ 248 µM); against C. albicans it was 128 µg/mL (≈ 248 µM); in the test with P. aerug it was 128 µg/mL (≈ 248 µM).
For `CC(CCC(=O)O)[C@H]1CCC2C3CC[C@H]4C[C@@H](NCCCNCCCCN)CC[C@]4(C)C3CC[C@@]21C` (stereo partly drawn), the MIC against S. aureus is 64 µg/mL (≈ 127 µM); against E. coli, 32 to 64 µg/mL (≈ 63.5 to 127 µM); against C. albicans, 8 µg/mL (≈ 15.9 µM); against P. aerug, 32 µg/mL (≈ 63.5 µM).
For `CC(CCC(=O)O)[C@H]1CCC2C3CC[C@H]4C[C@H](NCCCNCCCCN)CC[C@]4(C)C3CC[C@@]21C` (stereo partly drawn), in that order: 128 µg/mL (≈ 254 µM), 32 µg/mL (≈ 63.5 µM), greater than 256 µg/mL and 64 µg/mL (≈ 127 µM).
The corresponding values for `CC(C)CCCC(C)[C@H]1CCC2C3CC[C@H]4C[C@H](NCCCNCCCCNCCCN)CC[C@]4(C)C3CC[C@@]21C` (stereo partly drawn) are 8 µg/mL (≈ 14 µM), 64 to 128 µg/mL (≈ 112 to 223 µM), 16 to 32 µg/mL (≈ 27.9 to 55.8 µM) and 64 µg/mL (≈ 112 µM).
For `CC(C)C(O)CCC(C)[C@H]1CCC2C3C(CC[C@@]21C)[C@@]1(C)CC[C@@H](NCCCNCCCCN)C[C@@H]1C[C@H]3O` (stereo partly drawn), in that order: 16 to 32 µg/mL (≈ 29.2 to 58.4 µM), 128 µg/mL (≈ 234 µM), 64 µg/mL (≈ 117 µM) and 256 µg/mL (≈ 467 µM).
Consider `CC(C)C(CCC(C)[C@H]1CCC2C3C(CC[C@@]21C)[C@@]1(C)CC[C@@H](NCCCNCCCCN)C[C@@H]1C[C@H]3O)OS(=O)(=O)O` (stereo partly drawn), for which the MIC in the test on S. aureus is 2 to 4 µg/mL (≈ 3.18 to 6.37 µM); against E. coli, 4 to 8 µg/mL (≈ 6.37 to 12.7 µM); against C. albicans it was 16 µg/mL (≈ 25.5 µM); in the test on P. aerug it was 16 µg/mL (≈ 25.5 µM).
With `COC(=O)CCC(C)[C@H]1CCC2C3C(CC[C@@]21C)[C@@]1(C)CC[C@H](NCCCNCCCCN)C[C@@H]1C[C@H]3O` (stereo partly drawn), the MIC is 4 to 8 µg/mL (≈ 7.49 to 15 µM) in the test with S. aureus, 32 µg/mL (≈ 59.9 µM) in the test with E. coli, 32 µg/mL (≈ 59.9 µM) against C. albicans and 64 µg/mL (≈ 120 µM) in the test with P. aerug.
Regarding `CC(CCC(=O)O)[C@H]1CCC2C3C(CC[C@@]21C)[C@@]1(C)CC[C@H](NCCCNCCCCN)C[C@@H]1C[C@H]3O` (stereo partly drawn), the minimal inhibitory concentration (MIC) against S. aureus stood at 32 µg/mL (≈ 61.6 µM); against E. coli, 64 µg/mL (≈ 123 µM); in the test with C. albicans, 128 µg/mL (≈ 246 µM); with P. aerug, 32 µg/mL (≈ 61.6 µM).
As for `C=C(C)C(=O)CCC(C)[C@H]1CCC2C3C(CC[C@@]21C)[C@@]1(C)CC[C@H](NCCCNCCCCN)C[C@@H]1C[C@H]3O` (stereo partly drawn), the minimum inhibitory concentration (MIC) in the test with S. aureus worked out at 4 µg/mL (≈ 7.35 µM); against E. coli it was 32 µg/mL (≈ 58.8 µM); against P. aerug, 128 µg/mL (≈ 235 µM).
In the case of `CC(C)CCCC(C)[C@H]1CCC2C3C(CC[C@@]21C)[C@@]1(C)CC[C@@H](N)C[C@@H]1C[C@H]3O` (stereo partly drawn), the values for the minimum inhibitory concentration (MIC) in the test with S. aureus, against E. coli and in the test with P. aerug were 2 µg/mL (≈ 4.95 µM), greater than 256 µg/mL and greater than 256 µg/mL, respectively.
With `CC(C)CCCC(C)[C@H]1CCC2C3C(CC[C@@]21C)[C@@]1(C)CC[C@H](NCCCNCCCCN)C[C@@H]1C[C@H]3O` (stereo partly drawn) [Compound 371], the “Pharmacological category in tadpole assay (similarity to a reference steroid)” value (“Pharmacological category” below) in test [1] is recorded as “effects like those produced by compound 1436”. The “Vascular reactivity (capillary regression)” value (“Vascular reactivity” below) is 0 in test [2] (0.001 μg applied); 0 in test [2] (0.01 μg applied); 0 in test [2] (0.1 μg applied); “+/−” in test [2] (1 μg applied); “+” in test [2] (10 μg applied).
As for `COC(=O)CCC(C)[C@H]1CCC2C3C(CC[C@@]21C)[C@@]1(C)CC[C@H](NCCN)C[C@H]1C[C@H]3O` (stereo partly drawn) [Compound 409], the “Pharmacological category” value in test [1] is given as “functionally similar to compound 1437”. Besides, the “Vascular reactivity” value in test [2] (1 μg applied) was 0.
`COC(=O)CCC(C)[C@H]1CCC2C3C(CC[C@@]21C)[C@@]1(C)CC[C@@H](NCCN)C[C@H]1C[C@H]3O` (stereo partly drawn) [Compound 410]: the “Effect on endothelial cord formation” value was “−” in test [3] (0.1 μg/ml) and “+” in test [3] (1.0 μg/ml). The “Pharmacological category” value in test [1] is given as “functionally similar to compound 1437”. The “Vascular reactivity” value is given as 0 in test [2] (0.001 μg applied), “+/−” in test [2] (0.01 μg applied), “+/−” in test [2] (0.1 μg applied) and “+” in test [2] (1 μg applied).
For `CC(CCC(=O)O)[C@H]1CCC2C3C(CC[C@@]21C)[C@@]1(C)CC[C@@H](NCCCNCCCCNCCCN)C[C@H]1C[C@H]3O` (stereo partly drawn) [Compound 412], the “Effect on endothelial cord formation” value in test [3] (0.1 μg/ml) is listed as “−”; in test [3] (1.0 μg/ml), “−”; in test [3] (10.0 μg/ml) it was “+”. The “Pharmacological category” value in test [1] is “pharmacologic activity similar to that seen for FX 3”. Moreover, the “Vascular reactivity” value in test [2] (0.001 μg applied) was 0; in test [2] (0.01 μg applied) it was 0; in test [2] (0.1 μg applied), 0; in test [2] (1 μg applied) it was “+”.
On to `CC(CCC(=O)O)[C@H]1CCC2C3C(CC[C@@]21C)[C@@]1(C)CC[C@H](NCCCNCCCCNCCCN)C[C@H]1C[C@H]3O` (stereo partly drawn) [Compound 413], for which the “Effect on endothelial cord formation” value is given as “−” in test [3] (0.1 μg/ml), “−” in test [3] (1.0 μg/ml) and “+” in test [3] (10.0 μg/ml). Further, the “Pharmacological category” value in test [1] is listed as “effects like those produced by compound 1436”. For the same molecule, in test [2] (1 μg applied), the “Vascular reactivity” value stood at 0.
For `CC(CCC(=O)O)[C@H]1CCC2C3C(CC[C@@]21C)[C@@]1(C)CC[C@@H](NCCN)C[C@H]1C[C@H]3O` (stereo partly drawn) [Compound 414], in test [1], the “Pharmacological category” value is “pharmacologic activity similar to Fraction 1”. Further, the “Vascular reactivity” value in test [2] (1 μg applied) came to 0.
On to `COC(=O)CCC(C)[C@H]1CCC2C3C[C@@H](O)[C@H]4C[C@@H](NCCN)CC[C@]4(C)C3CC[C@@]21C` (stereo partly drawn) [Compound 432], for which the “Effect on endothelial cord formation” value in test [3] (1.0 μg/ml) and in test [3] (10.0 μg/ml) was “−” throughout. Also, the “Pharmacological category” value in test [1] was “functionally similar to compound 1437”.
Regarding `COC(=O)CCC(C)[C@H]1CCC2C3CC[C@H]4C[C@@H](NCCCNCCCCNCCCN)CC[C@]4(C)C3CC[C@@]21C` (stereo partly drawn) [Compound 459], the “Pharmacological category” value in test [1] is listed as “pharmacologic activity similar to that seen for FX 3”.
On the same count and under the same terms, the same measure for `COC(=O)CCC(C)[C@H]1CCC2C3C[C@@H](O)[C@H]4C[C@H](NCCCNCCCCNCCCN)CC[C@]4(C)C3CC[C@@]21C` (stereo partly drawn) [Compound 465]: “pharmacologic activity similar to that seen for FX 3”; for `COC(=O)CCC(C)[C@H]1CCC2C3C[C@@H](O)[C@H]4C[C@@H](NCCCNCCCCNCCCN)CC[C@]4(C)C3CC[C@@]21C` (stereo partly drawn) [Compound 466]: “pharmacologic activity similar to that seen for FX 3”.
Still for that read-out and setting: the same measure for `CC(C)CCCC(C)[C@H]1CCC2C3C(CC[C@@]21C)[C@@]1(C)CC[C@@H](N)C[C@@H]1C[C@H]3O` (stereo partly drawn) [Compound 1363]: “pharmacologic activity similar to Fraction 1”.
`CC(CCC(=O)C(C)(C)OS(=O)(=O)O)[C@H]1CCC2C3C(CC[C@@]21C)[C@@]1(C)CC[C@H](NCCCNCCCCN)C[C@@H]1C[C@H]3O` (stereo partly drawn) [FX1A]: the “Pharmacological response observed in tadpole” value in test [1] (about 1 hour) is “fecal elimination is dramatically increased”.
